Measurements published in paper PMC6514962, “The Impact of O-Glycosylation on Cyanidin Interaction with RBCs and HMEC-1 Cells—Structure–Activity Relationships” (International Journal of Molecular Sciences, 2019).

Legend:
[1] = tested on: HMEC-1 cells; assay: viability of HMEC-1 cells, XTT and Hoechst 33342 assays; type: cell-based, human; conditions: HMEC-1, 10-100 µM, 48 h
Method: The effect of compounds on the viability of HMEC-1 cells was assessed by XTT (2,3-bis-(2-methoxy-4-nitro-5-sulfophenyl)-2H-tetrazolium-5-carboxanilide) and Hoechst 33342 assays. Briefly, 5 × 10^3 cells in 100 µL of the appropriate growth medium were plated in 96-well flat bottom clear microplates and cultured for 24 h at 37 °C in a humidified 5% CO2 incubator to ensure their logarithmic growth. […] A corresponding volume of 0.5% ethanol was added to the control wells. In parallel experiments, some of the cells were additionally incubated with doxorubicin in a concentration of 0.5 µM (a cytotoxic compound usually used as an anticancer drug). After incubation, the medium in the wells was aspirated, the cell monolayers were rinsed twice with pre-warmed (37 °C) PBS, and the cells were allowed to grow for an additional 48 h. After incubation, during the XTT assay, medium was removed by aspiration and 50 µL of XTT/PMS solution (10 µL of 10 mM PMS + 4 mL of 4 mg/mL XTT solution) was added to cells. Cells were incubated in the dark for 2 h (37 °C, 5% CO2). After incubation, the absorbance of the samples was read at 450 nm and 690 nm using an Epoch Microplate Spectrophotometer, BioTek Instruments, Inc., Winooski, Vermont, USA. The fraction of surviving treated cells was presented as a percentage of viable control (untreated) cells taken as 100%. In the Hoechst test, after incubation of cells with cyanidin and its glycosides, the medium was removed and the cells were washed twice with HBSS buffer containing 1% bovine serum albumin and frozen at −70 °C. Next, the cells were thawed at room temperature (RT) and re-frozen after the addition of […] of distilled water. After thawing the plates at room temperature, 100 µL of HVAB solution (0.5% Hoechst in TNE solution containing 2 M NaCl, 1 mM EDTA, 10 mM Tris-HCl, pH 7.4) were added to each well. Next, cells were incubated for 15 min in the dark at 37 °C, mixed, and the fluorescence intensity of the probe was measured at 355 and 460 nm for excitation and emission, respectively (Fluoroskan Ascent FL, Thermo Scientific, Waltham, MA, USA). Cell viability was calculated as the ratio of the fluorescence intensity of the Hoechst 33342 probe for compound-modified to -unmodified cells and expressed as a percentage.

[2] = tested on: MCF-7, HuH-7, HepG2, Caco-2, and HUVEC; design: method as in doi:10.3136/fstr.17.515; conditions: cited from earlier work
[3] = tested on: macrophages; design: method as in doi:10.1007/s10068-014-0279-x; conditions: cited from earlier work
[4] = tested on: HMEC-1 cells; assay: intracellular ROS generation in non-oxidized cells, H2DCF-DA assay; type: cell-based, human
Method: (§1) The impact of investigated compounds on the level of intracellular reactive oxygen species and their ability to inhibit AAPH-stimulated intracellular ROS generation were assessed using a H2DCF-DA probe. Non-fluorescent H2DCF-DA is hydrolyzed intracellularly to form 2′,7′-dichlorodihydrofluorescein, which is oxidized by reactive oxygen species to the fluorescent 2′,7′-dichlorofluorescein. ROS production was estimated in HMEC-1 cells seeded on 96-well plates (5 × 10^3/well) and cultured for 12 to 24 h. After that time, the compounds were added at appropriate concentrations. The incubation was continued for another 24 h and 48 h at 37 °C under 5% CO2. In the case of AAPH-simulated ROS generation, the cells were incubated with extracts for 24 h. After incubation, the AAPH dissolved in culture medium was added to each well at the final concentration of 7.5 mM and incubated for the next 24 h. After that time, the cell monolayers were rinsed with HBSS containing 1% albumin and 5 µM of the fluorescence probe, 2′,7′-dichlorodihydrofluorescein diacetate (H2DCF-DA), was added. Immediately and after 0.5 h, 1 h, and 2 h incubation in the dark in standard conditions, the fluorescence was measured at λex = 485 nm and λem = 538 nm.
(§2) In the next step, DNA content was determined. For this purpose, after measurements, the cells were frozen at −70 °C. Next, the cells were thawed and re-frozen after the addition of […] of distilled water/well. Then, the cells were thawed again. After that, 5 µM of RNase was added to each well and incubated for 30 min in the dark at 37 °C. Next, 50 µL of 2.5 µM propidium iodide was added to the cells and incubated for 5 min in the same conditions. The fluorescence intensity of PI was measured at λex = 355 nm and λem = 620 nm. The rate of ROS generation was calculated according to the formula: (1) Rate of ROS=IFe1/IFe2/IFc1/IFc2⋅100% where IFe1 and IFe2 are fluorescence intensities of H2DCF-DA and PI in compound-modified or compound-modified and AAPH-oxidized cells, and IFc1 and IFc2 are fluorescence intensities of H2DCF-DA and PI in control or AAPH-oxidized control cells.

[5] = tested on: RAW 264.7 cells; design: method as in doi:10.1007/s10068-014-0279-x; conditions: 100 to 200 µg/mL; cited from earlier work
[6] = design: method as in doi:10.1007/s10068-014-0279-x; conditions: cited from earlier work
[7] = tested on: HMEC-1 cells; assay: AAPH-stimulated intracellular ROS generation, H2DCF-DA assay; type: cell-based, human; conditions: HMEC-1 pretreated 24 h with 50 to 75 µM, then AAPH 24 h
Method: as §1, §2

[8] = tested on: erythrocytes (RBCs); assay: protection of erythrocytes against AAPH-induced hemolysis; type: cell-based, pig; conditions: compared with CR and CDG
Method: Upon removal from plasma, the erythrocytes (RBCs) were washed four times in phosphate solution (pH 7.4) and then incubated in the same solution, but containing appropriate amounts of the compounds studied. The modification was conducted at 37 °C for 1 h, each 1 mL sample containing an RBC suspension of 1.2% hematocrit and 1 to 100 µM of compounds, stirred continuously. After the modification, 2 mL of phosphate buffer were added and samples were centrifuged, and the supernatant assayed for hemoglobin content using a spectrophotometer (Specord 40, Analytik Jena) at the 540 nm wavelength. To test the effect of compounds on hemolysis inducted by AAPH, RBCs were pre-incubated with varying concentrations of compounds at 37 °C for 1 h. Hemolysis of RBCs was carried out by mixing 3% suspension of RBCs (unmodified or modified by 2 to 20 µM of the compounds) in phosphate buffer with AAPH solution (final concentration 120 mM). This reaction mixture was incubated for 3 h at 37 °C. After incubation, samples were centrifuged for 15 min (2000× g, RT). The extent of hemolysis was determined spectrophotometrically by measuring the absorbance of the supernatant at 540 nm. Hemoglobin concentration in the supernatant, expressed as a percentage of the hemoglobin concentration in the supernatant of totally hemolyzed cells, was assumed as the measure of the extent of hemolysis.

[9] = tested on: HER2 (breast cancer), GBM (glioblastoma), and human monocytic leukemia; design: method as in PMID 15080622, PMID 24312561, PMID 28867321; conditions: cancer cells, interrupting the G2-M phase; cited from earlier work

In the case of OCC1OC(Oc2cc3c(O)cc(O)cc3[o+]c2-c2ccc(O)c(O)c2)C(O)C(O)C1O (stereo not shown) [CG, cyanidin-3-O-glucoside], the cytotoxicity [1] is listed as “no cytotoxicity”, the “intracellular ROS levels” value [2] is listed as “did not” and the “protective effect against H2O2-induced cytotoxicity compared with CR” value [3] is listed as “stronger protective effect”. For the same molecule, the “intracellular ROS level compared with control cells” value ([4]; HMEC-1, 24 h, 50-100 µM) was “significant decrease”, the “intracellular ROS level compared with control cells” value ([4]; HMEC-1, 48 h, 100 µM) was “no significant difference” and the “cell viability compared with control cells” value [5] was “significantly decreased”. The “nitrite scavenging activity compared with CR” value [6] was “higher”, the “intracellular ROS level in comparison with control AAPH-oxidized cells” value [7] was “significant decrease” and the “level of RBCs' protection relative to CR and CDG” value [8] was “better protection”. The “cytotoxic effect (apoptosis)” value [9] was “inducing apoptosis”.
